Paper PMC6576746, “Rational discovery of dual-indication multi-target PDE/Kinase inhibitor for precision anti-cancer therapy using structural systems pharmacology” (PLoS Computational Biology, 2019)

Columns and labels:
Experiment in all cases: biochemical
Design in all cases: DiscoverX KinomeScan competition binding assay across human kinases; per cent of control at 10 and 100 uM
HIPK4 = HIPK4 (Homo sapiens, UniProt Q8NE63); settings: competition binding, % of control; read-out: Percent Control (100 uM Levosimendan)
Procedure, shortened: (§1)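 KinomeScan competition binding was run across a human kinase panel at 10 μM and 100 μM levosimendan. Results are %control = (test − positive control)/(negative control − positive control) × 100.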

PRKD2 = PRKD2 (Homo sapiens, UniProt Q9BZL6); settings: competition binding, % of control; read-out: Percent Control (100 uM Levosimendan)
Procedure, shortened: as §1

HCK = HCK (Homo sapiens, UniProt P08631); settings: competition binding, % of control
Procedure, shortened: as §1

FAK = target: T1, FAK (Homo sapiens, UniProt Q05397); settings: competition binding, % of control; read-out: Percent Control (100 uM Levosimendan)
T1 construct: gene PTK2
Procedure, shortened: as §1

RET(V804L) = RET(V804L) (Homo sapiens, UniProt P07949, V804L); settings: competition binding, % of control; read-out: Percent Control (100 uM Levosimendan)
Procedure, shortened: as §1

MARK4 = MARK4 (Homo sapiens, UniProt Q96L34); settings: competition binding, % of control; read-out: Percent Control (100 uM Levosimendan)
Procedure, shortened: as §1

LRRK2 = LRRK2 (Homo sapiens, UniProt Q5S007); settings: competition binding, % of control; read-out: Percent Control (100 uM Levosimendan)
Procedure, shortened: as §1

SRPK3 = SRPK3 (Homo sapiens, UniProt Q9UPE1); settings: competition binding, % of control; read-out: Percent Control (100 uM Levosimendan)
Procedure, shortened: as §1

EPHA5 = EPHA5 (Homo sapiens, UniProt P54756); settings: competition binding, % of control; read-out: Percent Control (100 uM Levosimendan)
Procedure, shortened: as §1

LCK = LCK (Homo sapiens, UniProt P06239); settings: competition binding, % of control
Procedure, shortened: as §1

STK16 = STK16 (Homo sapiens, UniProt O75716); settings: competition binding, % of control; read-out: Percent Control (100 uM Levosimendan)
Procedure, shortened: as §1

MYLK2 = MYLK2 (Homo sapiens, UniProt Q9H1R3); settings: competition binding, % of control; read-out: Percent Control (100 uM Levosimendan)
Procedure, shortened: as §1

ERN1 = ERN1 (Homo sapiens, UniProt O75460); settings: competition binding, % of control; read-out: Percent Control (100 uM Levosimendan)
Procedure, shortened: as §1

CAMK2D = CAMK2D (Homo sapiens, UniProt Q13557); settings: competition binding, % of control; read-out: Percent Control (100 uM Levosimendan)
Procedure, shortened: as §1

CLK4 = CLK4 (Homo sapiens, UniProt Q9HAZ1); settings: competition binding, % of control; read-out: Percent Control (100 uM Levosimendan)
Procedure, shortened: as §1

MKNK1 = MKNK1 (Homo sapiens, UniProt Q9BUB5); settings: competition binding, % of control; read-out: Percent Control (100 uM Levosimendan)
Procedure, shortened: as §1

EPHB1 = EPHB1 (Homo sapiens, UniProt P54762); settings: competition binding, % of control; read-out: Percent Control (100 uM Levosimendan)
Procedure, shortened: as §1

STK39 = STK39 (Homo sapiens, UniProt Q9UEW8); settings: competition binding, % of control; read-out: Percent Control (100 uM Levosimendan)
Procedure, shortened: as §1

LTK = LTK (Homo sapiens, UniProt P29376); settings: competition binding, % of control; read-out: Percent Control (100 uM Levosimendan)
Procedure, shortened: as §1

ITK = ITK (Homo sapiens, UniProt Q08881); settings: competition binding, % of control; read-out: Percent Control (100 uM Levosimendan)
Procedure, shortened: as §1

[1] = read-out: Percent Control (10 uM Levosimendan)
[2] = read-out: Percent Control (100 uM Levosimendan)

Sequence of HCK (P08631 whole entry): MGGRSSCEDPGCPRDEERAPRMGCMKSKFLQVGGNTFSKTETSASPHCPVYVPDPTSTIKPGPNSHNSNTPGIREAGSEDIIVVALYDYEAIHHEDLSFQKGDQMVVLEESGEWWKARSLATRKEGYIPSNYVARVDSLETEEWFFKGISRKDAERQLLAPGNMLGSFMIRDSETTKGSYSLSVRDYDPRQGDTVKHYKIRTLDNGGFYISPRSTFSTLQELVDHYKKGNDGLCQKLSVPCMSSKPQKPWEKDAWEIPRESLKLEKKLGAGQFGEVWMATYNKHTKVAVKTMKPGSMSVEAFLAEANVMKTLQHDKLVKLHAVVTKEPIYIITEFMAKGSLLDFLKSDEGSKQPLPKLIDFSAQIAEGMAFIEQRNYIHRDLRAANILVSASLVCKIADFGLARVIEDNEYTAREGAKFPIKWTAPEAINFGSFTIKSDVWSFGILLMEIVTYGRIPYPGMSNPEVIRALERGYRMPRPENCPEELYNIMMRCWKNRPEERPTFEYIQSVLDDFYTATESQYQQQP
Sequence of LCK (P06239 whole entry): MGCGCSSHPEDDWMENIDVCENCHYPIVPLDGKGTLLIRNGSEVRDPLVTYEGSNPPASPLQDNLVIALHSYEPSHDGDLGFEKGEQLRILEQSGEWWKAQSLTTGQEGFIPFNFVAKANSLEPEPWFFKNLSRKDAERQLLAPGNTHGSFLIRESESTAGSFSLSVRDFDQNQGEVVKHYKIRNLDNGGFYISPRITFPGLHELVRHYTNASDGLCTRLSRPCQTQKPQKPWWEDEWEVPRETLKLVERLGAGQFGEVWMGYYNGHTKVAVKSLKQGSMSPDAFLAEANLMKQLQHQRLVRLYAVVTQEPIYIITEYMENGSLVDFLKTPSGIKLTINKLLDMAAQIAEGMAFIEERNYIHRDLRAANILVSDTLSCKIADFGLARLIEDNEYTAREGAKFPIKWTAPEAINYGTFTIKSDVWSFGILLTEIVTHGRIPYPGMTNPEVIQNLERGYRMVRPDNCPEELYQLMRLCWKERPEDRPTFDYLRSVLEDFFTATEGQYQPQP
Sequence of ITK (Q08881 whole entry): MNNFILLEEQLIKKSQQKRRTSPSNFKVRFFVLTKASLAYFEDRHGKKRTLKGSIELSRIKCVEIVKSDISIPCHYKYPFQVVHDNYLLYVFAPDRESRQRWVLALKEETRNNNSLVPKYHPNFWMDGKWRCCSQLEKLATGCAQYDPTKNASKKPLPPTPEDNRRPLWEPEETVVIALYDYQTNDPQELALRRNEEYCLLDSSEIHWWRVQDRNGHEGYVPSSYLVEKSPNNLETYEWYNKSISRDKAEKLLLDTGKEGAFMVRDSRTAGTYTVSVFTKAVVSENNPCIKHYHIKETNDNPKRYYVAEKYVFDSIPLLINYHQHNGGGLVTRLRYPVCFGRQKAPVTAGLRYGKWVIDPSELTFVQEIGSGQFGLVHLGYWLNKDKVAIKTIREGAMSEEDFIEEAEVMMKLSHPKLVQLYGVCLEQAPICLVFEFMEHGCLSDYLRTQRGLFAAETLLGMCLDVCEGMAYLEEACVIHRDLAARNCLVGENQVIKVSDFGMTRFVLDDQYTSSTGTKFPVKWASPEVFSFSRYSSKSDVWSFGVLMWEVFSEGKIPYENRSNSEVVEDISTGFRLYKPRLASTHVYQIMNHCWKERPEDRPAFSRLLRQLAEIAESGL
Sequence of EPHA5 (P54756 whole entry): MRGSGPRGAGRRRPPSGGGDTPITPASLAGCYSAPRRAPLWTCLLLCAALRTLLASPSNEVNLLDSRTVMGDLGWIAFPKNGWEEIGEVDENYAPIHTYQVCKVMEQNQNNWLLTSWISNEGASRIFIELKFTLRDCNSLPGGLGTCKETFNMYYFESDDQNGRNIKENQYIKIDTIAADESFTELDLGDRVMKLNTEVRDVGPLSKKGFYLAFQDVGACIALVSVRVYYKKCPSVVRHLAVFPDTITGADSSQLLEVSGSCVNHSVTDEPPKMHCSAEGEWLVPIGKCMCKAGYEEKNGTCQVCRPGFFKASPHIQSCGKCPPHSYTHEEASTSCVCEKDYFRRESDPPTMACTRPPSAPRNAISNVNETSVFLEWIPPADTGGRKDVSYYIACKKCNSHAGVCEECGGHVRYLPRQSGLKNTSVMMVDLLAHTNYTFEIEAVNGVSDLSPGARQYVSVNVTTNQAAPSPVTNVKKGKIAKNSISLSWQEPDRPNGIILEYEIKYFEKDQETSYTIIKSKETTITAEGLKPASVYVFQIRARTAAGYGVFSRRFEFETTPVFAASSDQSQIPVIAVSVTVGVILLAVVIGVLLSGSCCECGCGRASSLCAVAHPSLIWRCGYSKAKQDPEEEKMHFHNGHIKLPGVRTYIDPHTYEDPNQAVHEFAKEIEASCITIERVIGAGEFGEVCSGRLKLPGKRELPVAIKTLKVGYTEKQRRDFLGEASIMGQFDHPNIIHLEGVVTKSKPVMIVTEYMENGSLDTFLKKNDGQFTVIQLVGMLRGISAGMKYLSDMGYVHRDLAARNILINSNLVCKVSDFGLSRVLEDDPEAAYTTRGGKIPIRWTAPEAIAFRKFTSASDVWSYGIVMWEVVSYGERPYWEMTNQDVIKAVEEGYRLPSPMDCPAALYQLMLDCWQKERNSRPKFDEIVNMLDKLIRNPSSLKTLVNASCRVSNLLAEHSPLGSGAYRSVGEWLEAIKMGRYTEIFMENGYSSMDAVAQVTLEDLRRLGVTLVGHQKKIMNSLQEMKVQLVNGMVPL
Sequence of MARK4 (Q96L34 whole entry): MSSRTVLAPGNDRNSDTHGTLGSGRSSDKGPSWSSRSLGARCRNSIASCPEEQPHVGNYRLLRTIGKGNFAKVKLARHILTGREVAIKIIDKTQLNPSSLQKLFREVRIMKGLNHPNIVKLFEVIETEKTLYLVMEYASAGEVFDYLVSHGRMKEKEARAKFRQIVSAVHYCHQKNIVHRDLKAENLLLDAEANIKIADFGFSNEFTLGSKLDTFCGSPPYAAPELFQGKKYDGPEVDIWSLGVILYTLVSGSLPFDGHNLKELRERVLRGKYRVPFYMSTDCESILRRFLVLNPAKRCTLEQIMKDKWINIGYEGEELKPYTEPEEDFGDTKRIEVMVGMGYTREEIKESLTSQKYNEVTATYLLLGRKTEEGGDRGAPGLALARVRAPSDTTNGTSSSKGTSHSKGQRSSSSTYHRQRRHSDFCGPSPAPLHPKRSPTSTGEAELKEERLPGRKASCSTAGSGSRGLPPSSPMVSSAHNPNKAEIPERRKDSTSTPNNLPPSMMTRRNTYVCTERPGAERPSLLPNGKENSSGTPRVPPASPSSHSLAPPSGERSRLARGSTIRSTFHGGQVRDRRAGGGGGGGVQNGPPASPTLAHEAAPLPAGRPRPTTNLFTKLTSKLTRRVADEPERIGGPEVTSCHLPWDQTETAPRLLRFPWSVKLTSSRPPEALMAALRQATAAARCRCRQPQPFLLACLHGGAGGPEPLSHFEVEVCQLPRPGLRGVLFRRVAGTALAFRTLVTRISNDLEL
Sequence of RET(V804L) (P07949 whole entry V804L): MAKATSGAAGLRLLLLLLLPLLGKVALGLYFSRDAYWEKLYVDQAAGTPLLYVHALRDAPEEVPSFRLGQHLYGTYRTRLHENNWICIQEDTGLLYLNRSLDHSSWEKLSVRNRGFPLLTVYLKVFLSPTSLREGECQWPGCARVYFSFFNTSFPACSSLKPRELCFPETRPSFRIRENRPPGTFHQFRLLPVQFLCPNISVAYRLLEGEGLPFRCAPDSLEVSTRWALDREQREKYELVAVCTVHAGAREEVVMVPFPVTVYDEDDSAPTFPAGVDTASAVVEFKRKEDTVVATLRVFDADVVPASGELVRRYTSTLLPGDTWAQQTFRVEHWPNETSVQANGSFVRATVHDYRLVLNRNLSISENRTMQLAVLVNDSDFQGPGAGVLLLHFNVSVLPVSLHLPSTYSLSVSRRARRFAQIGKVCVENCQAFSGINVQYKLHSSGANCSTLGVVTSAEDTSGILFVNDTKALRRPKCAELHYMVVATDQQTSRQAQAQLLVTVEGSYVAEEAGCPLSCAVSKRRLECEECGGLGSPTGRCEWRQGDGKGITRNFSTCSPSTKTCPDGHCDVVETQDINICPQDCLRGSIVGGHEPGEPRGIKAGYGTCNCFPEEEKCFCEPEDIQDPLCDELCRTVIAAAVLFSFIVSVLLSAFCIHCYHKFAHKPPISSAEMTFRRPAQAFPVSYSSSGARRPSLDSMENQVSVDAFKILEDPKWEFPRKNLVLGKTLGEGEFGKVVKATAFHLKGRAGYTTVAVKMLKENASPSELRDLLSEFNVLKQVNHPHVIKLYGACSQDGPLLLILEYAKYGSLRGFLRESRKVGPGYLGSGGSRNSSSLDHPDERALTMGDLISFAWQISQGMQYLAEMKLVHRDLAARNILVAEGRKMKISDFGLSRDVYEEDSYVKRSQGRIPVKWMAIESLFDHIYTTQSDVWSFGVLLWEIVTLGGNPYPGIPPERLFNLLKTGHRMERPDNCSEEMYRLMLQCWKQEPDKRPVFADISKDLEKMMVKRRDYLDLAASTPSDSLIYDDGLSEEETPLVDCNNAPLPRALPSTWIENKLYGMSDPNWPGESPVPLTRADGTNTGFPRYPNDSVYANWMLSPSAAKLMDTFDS
Sequence of STK16 (O75716 whole entry): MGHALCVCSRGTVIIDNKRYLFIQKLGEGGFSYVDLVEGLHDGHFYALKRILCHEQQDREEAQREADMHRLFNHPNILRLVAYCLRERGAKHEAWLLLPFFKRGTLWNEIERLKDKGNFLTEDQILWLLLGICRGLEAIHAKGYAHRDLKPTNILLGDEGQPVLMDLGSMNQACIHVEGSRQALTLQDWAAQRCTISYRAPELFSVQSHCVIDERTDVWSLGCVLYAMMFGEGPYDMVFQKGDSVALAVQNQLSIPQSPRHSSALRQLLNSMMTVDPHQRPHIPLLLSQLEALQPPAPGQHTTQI

remaining binding at 100 µM (HIPK4): 84%
remaining binding at 100 µM (PRKD2): 75%
remaining binding at 10 µM (HCK; [1]): 98%
remaining binding at 100 µM (HCK; [2]): 24%
remaining binding at 100 µM (FAK): 89%
remaining binding at 100 µM (RET(V804L)): 92%
remaining binding at 100 µM (MARK4): 87%
remaining binding at 100 µM (LRRK2): 77%
remaining binding at 100 µM (SRPK3): 63%
remaining binding at 100 µM (EPHA5): 100%
remaining binding at 10 µM (LCK; [1]): 89%
remaining binding at 100 µM (LCK; [2]): 46%
remaining binding at 100 µM (STK16): 80%
remaining binding at 100 µM (MYLK2): 81%
remaining binding at 100 µM (ERN1): 79%
remaining binding at 100 µM (CAMK2D): 87%
remaining binding at 100 µM (CLK4): 89%
remaining binding at 100 µM (MKNK1): 65%
remaining binding at 100 µM (EPHB1): 96%
remaining binding at 100 µM (STK39): 100%
remaining binding at 100 µM (LTK): 96%
remaining binding at 100 µM (ITK): 86%
Compound: C[C@@H]1CC(=O)NN=C1c1ccc(NN=C(C#N)C#N)cc1 [levosimendan]
